Among the data in US9381191B2, “Imidazopyridine derivatives useful in treating diabetes” (METABRAIN RESEARCH, priority 2012, dated 2016) are insulin secretion, % of control values, retold here.

Counter-ions that a name gives are not always drawn.

The test system of this experiment is INS-1 cells. As to the kind of experiment: Stimulation test of insulin secretion by INS-1 cells. The settings on record: Rattus norvegicus, INS1, 1 h, insulin secretion by INS-1 cells in response to glucose; for insulin secretion, % of control at 10 µM: read-out: HGP % of ctrl @ 10 μM; for insulin secretion, % of control at 50 µM: read-out: HGP % of ctrl @ 50 μM. In kind it is cell-based. The protocol: The different compounds were tested on an INS-1 beta-pancreatic line in order to evaluate their capability of potentializing the insulin secretion in response to glucose. Very briefly, the cells are cultivated in a culture medium, RPMI 1640 with 10 mM glucose containing 1 mM of sodium pyruvate, 50 μM of 2-mercaptoethanol, 2 mM of glutamine, 10 mM of HEPES, 100 IU/ml of penicillin, 100 μg/ml of streptomycin and 10% of inactivated fetal calf serum, as described by Asfari et al.. For the insulin secretion test, the INS-1 cells are sown and cultivated in 96-well plates. After 3 days of cultivation at 37° C. in a humid atmosphere (95% air/5% CO2), the medium is removed and the cells are incubated for 16 h in a medium containing 5 mM of glucose and 1% of inactivated fetal calf serum. On the day of the test, the cells are washed with a Krebs buffer (pH 7.4) containing 0.1% of bovine albumin and then pre-incubated for 30 min at 37° C. in this same buffer containing 2.8 mM of glucose. Finally, the cells are again washed with Krebs buffer and then incubated for 1 h in the buffer of the secretion test (Krebs, pH 7.4 containing 0.1% of bovine albumin and 3.5 mM of glucose and molecules to be evaluated). At the end of the test, the cell supernatant is recovered in order to measure therein the secreted insulin, by means of an ELISA kit using a rat anti-insulin antibody (ELISA Alpco Cat no. 80-INSRTH-E10). Each condition is tested in triplicate. The 3.5 mM glucose, the 10^−7M GLP-1 and the Forskoline 10^−7/IBMX 10^−5M mixtures are used as positive controls of the test. A compound stimulates the secretion of insulin if this factor is greater than or equal to 130% of the control for a given glucose dose.

Take `CCOC(=O)COCc1nc2ccccn2c1C#Cc1ccsc1` [Derivative 9, ethyl 2-((3-(thiophen-3-ylethynyl)-imidazo[1,2-a]pyridin-2-yl)methoxy)acetate]: the insulin secretion, % of control at 10 µM worked out at 116% and the insulin secretion, % of control at 50 µM worked out at 175%.
On to `CC(C)(CO)C(OCc1nc2ccccn2c1C#Cc1cccc(C(F)(F)F)c1)C(=O)O` (stereo not drawn) [Derivative 129, 4-hydroxy-3,3-dimethyl-2-[[3-[2-[3-(trifluoromethyl)phenyl]ethynyl]imidazo[1,2-a]pyridin-2-yl]methoxy]butanoic acid], for which the insulin secretion, % of control at 10 µM worked out at 109% and the insulin secretion, % of control at 50 µM was 146%.
The matching figures for `O=C(O)COCc1nc2ccccn2c1C#Cc1ccc(OC(F)(F)F)c(F)c1` [Derivative 39, 2-((3-((3-fluoro-4-(trifluoro-methoxy)phenyl)ethynyl)imidazo [1,2-a]pyridin-2-yl)methoxy)acetic acid]: 121% and 137%.
With `CN(C)CCNC(=O)COCc1nc2ccccn2c1C#Cc1cccc(C(F)(F)F)c1` [Derivative 55, N-(2-(dimethylamino)ethyl)-2-((3-((3-(trifluoromethyl)-phenyl)ethynyl)imidazo[1,2-a]-pyridin-2-yl)methoxy)acetamide], the insulin secretion, % of control at 10 µM was 130% and the insulin secretion, % of control at 50 µM was 135%.
On to `COc1cccn2c(C#Cc3cccc(C(F)(F)F)c3)c(CSCCO)nc12` [Derivative 130, 2-[[8-methoxy-3-[2-[3-(trifluoromethyl)phenyl]ethynyl]imidazo[1,2-a]pyridin-2-yl]methylsulfanyl]ethanol], for which the insulin secretion, % of control at 10 µM stood at 150% and the insulin secretion, % of control at 50 µM was determined as 114%.
As for `CCOC(=O)CN(C)Cc1nc2ccc(Cl)cn2c1C#Cc1cccc(C(F)(F)F)c1` [Derivative 102, ethyl 2-[[6-chloro-3-[2-[3-(trifluoromethyl)phenyl]ethynyl]imidazo[1,2-a]pyridin-2-yl]methyl-methyl-amino]acetate], the insulin secretion, % of control at 10 µM is 176% and the insulin secretion, % of control at 50 µM was determined as 107%.
On to `OCCSCc1nc2ccc(Cl)cn2c1C#Cc1cccc(C(F)(F)F)c1` [Derivative 131, 2-[[6-chloro-3-[2-[3-(trifluoromethyl)phenyl]ethynyl]imidazo[1,2-a]pyridin-2-yl]methylsulfanyl]ethanol], for which the insulin secretion, % of control at 10 µM worked out at 131%.
`CCOC(=O)[C@@H](N)CSCc1nc2ccccn2c1C#Cc1cccc(C(F)(F)F)c1` [Derivative 113, ethyl (2R)-2-amino-3-[[3-[2-[3-(trifluoromethyl)phenyl]ethynyl]imidazo[1,2-a]pyridin-2-yl]methyl-sulfanyl]propanoate]: the insulin secretion, % of control at 10 µM was 136% and the insulin secretion, % of control at 50 µM was 112%.
As for `CCOC(=O)COCc1nc2ccccn2c1C#Cc1ccc([N+](=O)[O-])cc1` [Derivative 5, ethyl 2-((3-((4-nitrophenyl)-ethynyl)imidazo[1,2-a]pyridin-2-yl)methoxy)acetate], the insulin secretion, % of control at 10 µM came to 180% and the insulin secretion, % of control at 50 µM was found to be 195%.
In the same order, the values of `COC(=O)CN(C)Cc1nc2ccccn2c1C#Cc1cccc(C(F)(F)F)c1` [Derivative 72, methyl 2-(methyl((3-((3-(trifluoromethyl)-phenyl)ethynyl)-imidazo[1,2-a]pyridin-2-yl)methyl)amino)acetate] are 172% and 151%.
In the same order, the values of `CCOC(=O)CN(C)Cc1nc2ccccn2c1C#Cc1cccc(C(F)(F)F)c1` [Derivative 101, ethyl 2-[methyl-[[3-[2-[3-(trifluoromethyl)phenyl]ethynyl]imidazo[1,2-a]pyridin-2-yl]-methyl]amino]acetate hydrochloride] are 163% and 111%.
